This assay deals with M. tuberculosis wild type, biotin-free medium, growth. Description: growth inhibition of wild-type M. tuberculosis, biotin-free medium, single point, dry powder (AID 743350).

Active and inactive are the calls of the source. No rule for the calls is given here.

On to `COc1ccccc1C(=O)N1CCN(c2ccc(C(C)=O)cc2)CC1`, for which the IC90 was > 50 µM (inactive). In the case of `CN1c2ccc(-c3cccc(F)c3)cc2[C@H]2[C@H](CCN2C(=O)CCCCCCC(=O)O)[C@H]1CO` it was > 50 µM (inactive). To `CC(=O)c1ccc(N2CCN(C(=O)c3ccccc3F)CC2)cc1` belongs > 50 µM (inactive); to `COc1ccccc1NC(=O)N1CC[C@@H]2[C@@H](CO)N(C)c3ccc(-c4ccc(F)cc4)cc3[C@@H]21`, > 50 µM (inactive); to `CN1c2ccc(-c3cccc(F)c3)cc2[C@@H]2[C@@H](CCN2C(=O)c2ccc3c(c2)OCO3)[C@@H]1CO`, > 50 µM (inactive). In the case of `COC(=O)CCCCCCC(=O)N1CC[C@@H]2[C@@H](CO)N(C)c3ccc(-c4cccc(F)c4)cc3[C@@H]21` it was > 50 µM (inactive); in that of `CC(=O)c1ccc(N2CCN(C(=O)c3ccc4c(c3)OCO4)[C@H](C)C2)cc1`, 27.3 µM; in that of `CC(=O)c1ccc(N2CC3(CN(C(=O)c4ccc5c(c4)OCO5)C3)C2)cc1`, > 50 µM (inactive). Take `CN1c2ccc(-c3ccc(F)cc3)cc2[C@H]2[C@H](CCN2C(=O)Cc2cccnc2)[C@H]1CO`: the IC90 was > 50 µM (inactive). In the case of `CCC(=O)N1CC[C@@H]2[C@@H](CO)N(C)c3ccc(-c4ccc(F)cc4)cc3[C@@H]21` it was > 50 µM (inactive); in that of `CC(C)NC(=O)N1CC[C@@H]2[C@@H](CO)N(C)c3ccc(-c4ccc(F)cc4)cc3[C@@H]21`, > 50 µM (inactive); in that of `CN1c2ccc(-c3cccc(F)c3)cc2[C@H]2[C@H](CCN2C(=O)CCCCCCN)[C@H]1CO`, > 50 µM (inactive).

On to `CN1c2ccc(-c3ccc(F)cc3)cc2[C@H]2[C@H](CCN2C(=O)Nc2ccc(F)cc2)[C@H]1CO`, for which the IC90 is > 50 µM (inactive). Take `COc1ccc(NC(=O)N2CC[C@@H]3[C@@H](CO)N(C)c4ccc(-c5ccc(F)cc5)cc4[C@@H]32)cc1`: the IC90 is > 50 µM (inactive). For the compound `COCC(=O)N1CC[C@@H]2[C@@H](CO)N(C)c3ccc(-c4cccc(F)c4)cc3[C@@H]21`, the IC90 was > 50 µM (inactive). In the case of `CNC(=O)c1ccc(N2CCN(C(=O)c3ccc4c(c3)OCO4)CC2)cc1` it was > 50 µM (inactive); in that of `CN1c2ccc(-c3ccc(F)cc3)cc2[C@H]2[C@H](CCN2C(=O)Nc2cc(F)ccc2F)[C@H]1CO`, > 50 µM (inactive); in that of `CNS(=O)(=O)c1ccc(N2CCN(C(=O)c3ccc4c(c3)OCO4)CC2)cc1`, > 50 µM (inactive). Turning to `CN1c2ccc(-c3cccc(F)c3)cc2[C@H]2[C@H](CCN2C(=O)Cc2cccnc2)[C@H]1CO`, the IC90 was > 50 µM (inactive).

As for `CN1c2ccc(-c3cccc(F)c3)cc2[C@H]2[C@H](CCN2C(=O)c2ccc3c(c2)OCO3)[C@@H]1CO`, the IC90 is > 50 µM (inactive).

`CN1c2ccc(-c3cccc(F)c3)cc2[C@H]2[C@H](CCN2C(=O)Nc2ccccc2F)[C@H]1CO`: the IC90 is > 50 µM (inactive). To `CCCNC(=O)N1CC[C@@H]2[C@@H](CO)N(C)c3ccc(-c4ccc(F)cc4)cc3[C@@H]21` belongs > 50 µM (inactive). In the case of `COc1ccccc1NC(=O)N1CC[C@@H]2[C@@H](CO)N(C)c3ccc(-c4cccc(F)c4)cc3[C@@H]21` it was > 50 µM (inactive); in that of `CCCCCCCC(=O)N1CC[C@@H]2[C@@H](CO)N(C)c3ccc(-c4cccc(F)c4)cc3[C@@H]21`, > 50 µM (inactive); in that of `CN1c2ccc(-c3cccc(F)c3)cc2[C@@H]2[C@@H](CCN2C(=O)c2ccc3c(c2)OCO3)[C@H]1CO`, > 50 µM (inactive). In the case of `CN(C)C(=O)c1ccc(N2CCN(C(=O)c3ccc4c(c3)OCO4)CC2)cc1`, the IC90 was > 50 µM (inactive). `CC(=O)c1ccc(N2CCN(C(=O)c3ccccc3Cl)CC2)cc1`: the IC90 is > 50 µM (inactive).

On to `COc1cccc(NC(=O)N2CC[C@@H]3[C@@H](CO)N(C)c4ccc(-c5cccc(F)c5)cc4[C@@H]32)c1`, for which the IC90 was > 50 µM (inactive). In the case of `CC(C)NC(=O)N1CC[C@@H]2[C@@H](CO)N(C)c3ccc(-c4cccc(F)c4)cc3[C@@H]21` it was > 50 µM (inactive); in that of `CC(=O)c1ccc(NCCNC(=O)c2ccc3c(c2)OCO3)cc1`, > 50 µM (inactive); in that of `CN1c2ccc(-c3cccc(F)c3)cc2[C@H]2[C@H](CCN2C(=O)Cc2ccccc2)[C@H]1CO`, > 50 µM (inactive).

Regarding `COc1ccc(NC(=O)N2CC[C@@H]3[C@@H](CO)N(C)c4ccc(-c5cccc(F)c5)cc4[C@@H]32)cc1`, the IC90 is > 50 µM (inactive). In the case of `CC(=O)c1ccc(N2CCN(C(=O)c3ccc4c(c3)OCO4)CC2)cc1` it was 39.7 µM; in that of `CN1c2ccc(-c3ccc(F)cc3)cc2[C@H]2[C@H](CCN2C(=O)Cc2ccccn2)[C@H]1CO`, > 50 µM (inactive).

What is called IC90 is the concentration needed for an effect of 90%.
